Data set [1] addresses T1, Adenosylhomocysteinase (Homo sapiens, UniProt P23526). Nature of the data set: Inhibition of recombinant human AHCY using SAH as substrate assessed as formation of homocysteine after 10 mins.
Data set [2] addresses T1, Adenosylhomocysteinase. Nature of the data set: Inhibition of AHCY in human SH-SY5Y cells assessed as formation of homocysteine after 48 hrs by HPLC analysis. In kind it is cell-based.
The nature of data set [3]: Half life in rat. In kind it is ADME, organism-based. The settings on record: in vivo.
A short description of data set [4]: Plasma protein binding in rat. In kind it is ADME, cell-free.
Data set [5] in a line: Plasma protein binding in human. In kind it is ADME, cell-free.
Data set [6] can be described thus: Clearance in rat. In kind it is ADME, organism-based. The settings on record: in vivo.
Data set [7] is described as follows: Oral bioavailability in dog. To be noted: in vivo. In kind it is ADME, organism-based, Canis lupus familiaris.
A short description of data set [8]: Oral bioavailability in rat. In kind it is ADME, organism-based. The settings on record: in vivo.
Data set [9] is described as follows: Clearance in dog. To be noted: in vivo. In kind it is ADME, organism-based, Canis lupus familiaris.
The nature of data set [10]: Half life in dog. In kind it is ADME, organism-based, Canis lupus familiaris. The settings on record: in vivo.
Data set [11] can be described thus: Solubility of the compound at pH 7. In kind it is physicochemical. The settings on record: buffer.

Structures are written as SMILES. Where only a bound is given, the exact number is not on record here.

T1 sequence (P23526 whole entry): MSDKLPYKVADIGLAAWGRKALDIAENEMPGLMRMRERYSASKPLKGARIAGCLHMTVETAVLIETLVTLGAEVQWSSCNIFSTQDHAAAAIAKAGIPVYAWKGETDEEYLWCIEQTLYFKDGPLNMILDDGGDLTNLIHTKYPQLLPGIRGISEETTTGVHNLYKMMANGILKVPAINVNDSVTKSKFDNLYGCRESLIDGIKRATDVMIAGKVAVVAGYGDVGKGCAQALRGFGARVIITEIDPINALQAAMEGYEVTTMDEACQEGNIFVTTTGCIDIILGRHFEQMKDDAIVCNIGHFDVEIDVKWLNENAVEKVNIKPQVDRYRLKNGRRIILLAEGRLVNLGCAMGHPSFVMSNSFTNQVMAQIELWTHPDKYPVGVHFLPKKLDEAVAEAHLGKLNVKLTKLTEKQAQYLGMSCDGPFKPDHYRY

By IC50 is commonly meant the point on the concentration scale where inhibition reaches its midpoint. For the compound `Nc1ncc(F)c2c1ncn2[C@@H]1C(F)=C[C@@H](O)[C@H]1O`, at Adenosylhomocysteinase [1], the IC50 turned out to be 976 nM.
`Nc1ncnc2c1nc(Br)n2[C@@H]1CC[C@@H](O)[C@H]1O`: the concentration for half-maximal inhibition (IC50) on Adenosylhomocysteinase [2] and on Adenosylhomocysteinase [1] was greater than 10000 nM each time.
Take `Nc1nc(F)cc2c1ncn2[C@@H]1CC[C@@H](O)[C@H]1O`: the IC50 at Adenosylhomocysteinase [1] turned out to be 4830 nM.
As to `Nc1nc(F)nc2c1ncn2[C@@H]1CC[C@@H](O)[C@H]1O`, the results for the IC50 on Adenosylhomocysteinase [2] and on Adenosylhomocysteinase [1] were 98 nM and 2120 nM, respectively.
As for `Nc1ncc(F)c2c1ncn2[C@@H]1C(F)C[C@@H](O)[C@H]1O` (mixture of isomers), the IC50 on Adenosylhomocysteinase [2] is 2.7 nM; at Adenosylhomocysteinase [1] it was 455 nM.
For `Nc1ncc(F)c2c1ncn2[C@@H]1C[C@@H](F)[C@@H](O)[C@H]1O`, the half-inhibitory concentration (IC50) at Adenosylhomocysteinase [2] is 672 nM; at Adenosylhomocysteinase [1], greater than 10000 nM.
In the case of `Cc1cnc(N)c2ncn([C@@H]3CC[C@@H](O)[C@H]3O)c12`, the figures for the IC50 on Adenosylhomocysteinase [2] and at Adenosylhomocysteinase [1] were 36 nM and 236 nM, respectively.
For the compound `Nc1ncnc2c1ncn2[C@@H]1C=C(CCl)[C@@H](O)[C@H]1O`, the IC50 on Adenosylhomocysteinase [2] was determined as 939 nM; on Adenosylhomocysteinase [1], 195 nM.
As to `Nc1ncc(F)c2c1ncn2[C@@H]1C=C[C@@H](O)[C@H]1O`, at Adenosylhomocysteinase [1], the IC50 is 9690 nM.
In the case of `Nc1ncc(F)c2c1ncn2[C@H]1[C@H](O)[C@H](O)[C@@H]2C[C@@H]21`, the IC50 was 1960 nM on Adenosylhomocysteinase [2] and greater than 10000 nM at Adenosylhomocysteinase [1].
As to `C[C@H]1C[C@@H](n2cnc3c(N)ncc(F)c32)[C@H](O)[C@@H]1O`, on Adenosylhomocysteinase [1], the IC50 was found to be 1220 nM.
What is called half-life is the time needed for the level to fall by half in the phase considered. A low value points to fast loss. A word on the clearance: it is the rate of elimination divided by the concentration. A higher clearance goes with a high capacity for elimination. A word on the bioavailability: it is the share of a dose that reaches the circulation, judged against a reference dose that is usually intravenous. Read a low bioavailability as little systemic uptake. As to `Nc1ncc(F)c2c1ncn2[C@@H]1CC[C@@H](O)[C@H]1O`, the IC50 at Adenosylhomocysteinase [2] stood at 1.3 nM; on Adenosylhomocysteinase [1], 40 nM. In addition, the half-life was 0.9 h in data set [3] and 3.6 h in data set [10]. In addition, the PPB in [4] and in data set [5] was less than 0.1% each time. In addition, the figures for the clearance in data set [6] and in [9] were 21 mL/min/kg and 9.6 mL/min/kg, respectively. The bioavailability in data set [7] was greater than 99%; in data set [8], 86%. This compound also yielded a solubility in data set [11] greater than 200 uM/ml.
Consider `Nc1ncc(F)c2c1ncn2[C@@H]1C[C@@H](O)[C@@H](O)[C@H]1O`, for which the half-maximal inhibitory concentration (IC50) at Adenosylhomocysteinase [2] was 878 nM; on Adenosylhomocysteinase [1] it was greater than 10000 nM.
For `Nc1ncc(F)c2c1ncn2[C@@H]1C[C@H](O)[C@@H](O)[C@H]1O`, the figures for the IC50 at Adenosylhomocysteinase [2] and on Adenosylhomocysteinase [1] were 9.4 nM and 24 nM, respectively.
Take `Nc1ncc(Cl)c2c1ncn2[C@@H]1CC[C@@H](O)[C@H]1O`: the IC50 at Adenosylhomocysteinase [2] was determined as 2.2 nM; on Adenosylhomocysteinase [1] it was 16 nM.
In the same order, the values of `Nc1ncnc2c1nc(F)n2[C@@H]1CC[C@@H](O)[C@H]1O` are greater than 10000 nM and greater than 10000 nM.
Take `Nc1ncnc2c1nc(Cl)n2[C@@H]1CC[C@@H](O)[C@H]1O`: the IC50 was 2100 nM on Adenosylhomocysteinase [2] and greater than 10000 nM at Adenosylhomocysteinase [1].
Regarding `Nc1nc(F)c(F)c2c1ncn2[C@@H]1CC[C@@H](O)[C@H]1O`, the half-maximal inhibitory concentration (IC50) turned out to be 189 nM on Adenosylhomocysteinase [2] and 3640 nM on Adenosylhomocysteinase [1].
In the same order, the values of `Nc1ncnc2c1ncn2[C@@H]1CC[C@@H](O)[C@H]1O` are 1.5 nM and 55 nM.
Take `Nc1ncnc2c1ncn2[C@@H]1C=C(CO)[C@@H](O)[C@H]1O` [NEOPLANOCIN A]: the figures for the IC50 at Adenosylhomocysteinase [2] and at Adenosylhomocysteinase [1] were 10 nM and 1.5 nM, respectively.
As to `Nc1ncc(F)c2c1ncn2[C@@H]1C[C@H](F)[C@@H](O)[C@H]1O`, the IC50 on Adenosylhomocysteinase [2] amounted to 41 nM; at Adenosylhomocysteinase [1] it was 269 nM.
With `Nc1nccn2c([C@@H]3CC[C@@H](O)[C@H]3O)cnc12`, the figures for the IC50 on Adenosylhomocysteinase [2] and on Adenosylhomocysteinase [1] were 1.5 nM and 250 nM, respectively.
In the same order, the values of `Nc1ncnc2c1ncn2[C@@H]1C=C[C@@H](O)[C@H]1O` are 877 nM and 4120 nM.

For the origin of these results see ChEMBL document CHEMBL3286270, “Adenosine analogue inhibitors of S-adenosylhomocysteine hydrolase” (Bioorg Med Chem Lett, 2014).
